Assays:
[1] = target: human β2 adrenergic receptor (β2AR) (Homo sapiens, UniProt P07550); experiment: β2AR stability: [3H]-dihydroalprenolol (DHA) ligand binding assay; settings: CMC+0.2 wt %, room temperature, 6 days, [3H]-DHA
Protocol: Experiments were performed to measure the structural stability of the human β2 adrenergic receptor (β2AR) and G-protein-coupled receptor (GPCR) by TSMs, TTGs and TEMs. That is, a receptor purified by DDM was subjected to amphiphilic molecular exchange when diluted with a buffer solution containing only each of TSMs, TTGs and TEMs without cholesteryl hemisuccinate (CHS) or a buffer solution containing CHS and DDM. The final concentration of the amphiphilic molecule was CMC+0.2 wt %, and the ligand binding properties of the receptor were measured by binding of [^3H]-dihydroalprenolol ([^3H]-DHA). Specifically, the following method was used for a radioligand binding test. β2AR was purified using 0.1% DDM (D. M. Rosenbaum et al., Science, 2007, 318, 1266-1273.) and finally concentrated to about 10 mg/ml (about 200 μM). A master binding mixture containing 10 nM [^3H]-dihydroalprenolol (DHA) supplemented with 0.5 mg/ml BSA in 0.2% amphiphilic compounds (DDM, TSMs, TTGs or TEMs) was prepared using β2AR purified with DDM. Receptors purified with DDM, TSMs, TTGs or TEMs were incubated with 10 nM [^3H]-DHA at room temperature for 6 days. The mixture was loaded onto a G-50 column and a flow through was collected with 1 ml of a binding buffer (20 mM HEPES supplemented with 0.5 mg/ml BSA and 20×CMC each amphiphilic compound, pH 7.5, 100 mM NaCl), and filled with 15 ml of a scintillation fluid. Receptor-bound [^3H]-DHA was measured by a scintillation counter (Beckman). The binding of [^3H]-DHA is shown as a column graph.

[2] = Hydrodynamic radius (Rh) of micelles by dynamic light scattering (DLS); type: physicochemical; settings: 1.0 wt % detergent
Protocol: A method of measuring the radius of micelle is not particularly limited, but a method widely known in the art may be used, and for example, the radius of micelle may be measured using a dynamic light scattering (DLS) experiment.
(§1) Specifically, the critical micelle concentrations (CMCs) were measured using a fluorescent dye, diphenylhexatriene (DPH), and the hydrodynamic radii (Rh) of micelles formed by each preparation (1.0 wt %) were determined by a dynamic light scattering (DLS) experiment. The measured results are shown in Table 1 compared to DDM which is an existing amphiphilic molecule (detergent).

[3] = Solubility of detergent (Table 1); type: physicochemical
[4] = Critical micelle concentration (CMC) by fluorescent dye diphenylhexatriene (DPH); type: physicochemical; settings: DPH fluorescence
Protocol: A method of measuring the CMC is not particularly limited, but a method widely known in the art may be used, and for example, the CMC may be measured by a fluorescent staining method using diphenylhexatriene (DPH).
as §1

[5] = target: μ-opioid receptor (MOR) (Mus musculus, UniProt P42866); experiment: MOR thermal stability test (CPM dye, melting point Tm); type: biochemical; settings: 0.5 wt % compound, CPM fluorescence, 20° C. to 65° C.
Protocol: An N-[4-(7-diethylamino-4-methyl-3-coumarinyl)phenyl]maleimide (CPM) dye dissolved in DMSO (3 mg/ml) was diluted 40× in a buffer including 20 mM HEPES pH 7.5 and 150 mM NaCl. […] After 1 hour at room temperature, a compound was prepared at a final concentration of 0.5 wt % by diluting the receptor solution 2× in 20 mM HEPES pH 7.5, 150 mM NaCl. After […] of the diluted CPM dye was added thereto, the receptor stability of different compounds was measured by recording the fluorescence spectra (excitation 387 nm) every 5° C. from 20° C. to 65° C. while culturing at each temperature for 2 minutes. The melting point (Tm) was calculated by plotting the read value at 470 nm and fitting a non-linear regression curve using GraphPad Prism.

[6] = test system: leucine transporter (LeuT); experiment: LeuT structural stability: [3H]-Leu binding by scintillation proximity assay (SPA); type: biochemical, Aquifex aeolicus; settings: CMC+0.04 wt % or CMC+0.2 wt %, room temperature, 13-day incubation, [3H]-Leu SPA
Protocol: Experiments were performed to measure the structural stability of the LeuT protein by TSMs, TTGs and TEMs. Each amphiphilic compound was used at a concentration of (a) CMC+0.04 wt % or (b) CMC+0.2 wt %, and the substrate binding properties of LeuT were measured using [^3H]-Leu via scintillation proximity assay (SPA). The measurement was performed at regular intervals over the course of a 13-day and 12-day incubation at room temperature, respectively.
Specifically, a wild-type leucine transporter (LeuT) derived from the thermophilic bacterium Aquifex aeolicus was purified by a previously described method (Nature 1998, 392, 353-358 by G. Deckert et al.). LeuT was expressed in E. coli C41 (DE3) transformed with pET16b encoding the C-terminal 8×His-tagged transporter (expression plasmids were provided from Dr E. Gouaux, Vollum Institute, Portland, Oregon, USA). In summary, after a bacterial membrane was isolated and solubilized in 1 wt % DDM, the protein was bound to Ni^2+-NTA resin (Life Technologies, Denmark), and eluted in 20 mM Tris-HCl (pH 8.0), 1 mM NaCl, 199 mM KCl, 0.05% (w/v) DDM and 300 mM imidazole. Then, the purified LeuT (0.5 mg/ml) was diluted with buffers supplemented with TSMs, TTGs, TEMs or DDM at a final concentration of CMC+0.04% (w/v) or CMC+0.2% (w/v) except for DDM and imidazole in the equivalent buffer described above. Protein samples were incubated at room temperature for 13 days, centrifuged at a specified time, and protein properties were confirmed by measuring [^3H]-Leucine binding ability using SPA. SPA was performed with 5 μL of each protein sample in a buffer containing 450 mM NaCl and each of TSMs and TEMs (or DDM). The SPA reaction was performed in the presence of 20 nM [^3H]-Leucine and 1.25 mg/ml copper chelate (His-Tag) YSi beads (PerkinElmer, Denmark). Overall [^3H]-Leucine coupling to each sample was measured using a MicroBeta liquid scintillation counter (Perkin Elmer).

Chain of human β2 adrenergic receptor (β2AR) (P07550 whole entry): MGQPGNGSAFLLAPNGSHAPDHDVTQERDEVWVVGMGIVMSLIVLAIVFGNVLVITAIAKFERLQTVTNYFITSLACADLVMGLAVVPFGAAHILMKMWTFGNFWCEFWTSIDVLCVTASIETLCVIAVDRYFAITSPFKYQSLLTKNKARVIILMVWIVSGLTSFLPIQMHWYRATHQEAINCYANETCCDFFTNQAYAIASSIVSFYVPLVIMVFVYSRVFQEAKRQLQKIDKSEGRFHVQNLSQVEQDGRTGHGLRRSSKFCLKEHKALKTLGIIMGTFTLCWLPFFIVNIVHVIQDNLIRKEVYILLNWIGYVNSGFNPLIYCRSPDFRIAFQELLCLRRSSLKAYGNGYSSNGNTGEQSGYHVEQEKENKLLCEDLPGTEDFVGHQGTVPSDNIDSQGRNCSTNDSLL
Chain of μ-opioid receptor (MOR) (P42866 whole entry): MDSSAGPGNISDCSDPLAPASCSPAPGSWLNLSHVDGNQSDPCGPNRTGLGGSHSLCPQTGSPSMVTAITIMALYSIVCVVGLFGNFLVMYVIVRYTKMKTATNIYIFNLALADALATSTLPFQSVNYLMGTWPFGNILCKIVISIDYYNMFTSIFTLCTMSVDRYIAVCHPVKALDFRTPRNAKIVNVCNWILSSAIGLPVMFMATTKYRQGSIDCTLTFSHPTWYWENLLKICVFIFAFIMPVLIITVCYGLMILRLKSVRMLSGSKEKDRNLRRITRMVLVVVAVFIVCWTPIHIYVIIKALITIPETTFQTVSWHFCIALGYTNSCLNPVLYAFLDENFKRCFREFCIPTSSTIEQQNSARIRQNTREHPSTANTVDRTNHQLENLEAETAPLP

Row | SMILES | β2AR long-term ligand binding retention [1] | Rh (nm) [2] [nm] | solubility [3] [%] | CMC [4] [mM] | MOR melting point (Tm) [5] [°C] | LeuT substrate binding properties over incubation [6]
1 | CCCCCCCCCCOc1nc(NC(CO[C@@H]2O[C@H](CO)[C@@H](O[C@H]3O[C@H](CO)[C@@H](O)[C@H](O)[C@H]3O)[C@H](O)[C@H]2O)CO[C@@H]2O[C@H](CO)[C@@H](O[C@H]3O[C@H](CO)[C@@H](O)[C@H](O)[C@H]3O)[C@H](O)[C@H]2O)nc(OCCCCCCCCCC)n1 [TSM-E10] | better in maintaining the ligand binding ability of the receptor than DDM | 8.7 ± 0.7 | ~5 | ~0.004 | 48.9 | 
2 | CCCCCCCCCCCOc1nc(NC(CO[C@@H]2O[C@H](CO)[C@@H](O[C@H]3O[C@H](CO)[C@@H](O)[C@H](O)[C@H]3O)[C@H](O)[C@H]2O)CO[C@@H]2O[C@H](CO)[C@@H](O[C@H]3O[C@H](CO)[C@@H](O)[C@H](O)[C@H]3O)[C@H](O)[C@H]2O)nc(OCCCCCCCCCCC)n1 [TSM-E11] | better in maintaining the ligand binding ability of the receptor than DDM | 56.2 ± 9.9 | ~1 | ~0.002 |  | 
3 | CCCCCCCSc1nc(NC(CO[C@@H]2O[C@H](CO)[C@@H](O[C@H]3O[C@H](CO)[C@@H](O)[C@H](O)[C@H]3O)[C@H](O)[C@H]2O)CO[C@@H]2O[C@H](CO)[C@@H](O[C@H]3O[C@H](CO)[C@@H](O)[C@H](O)[C@H]3O)[C@H](O)[C@H]2O)nc(SCCCCCCC)n1 [TSM-T7] | better in maintaining the ligand binding ability of the receptor than DDM | 3.6 ± 0.1 | ~10 | ~0.01 |  | 
4 | CCCCCCCCSc1nc(NC(CO[C@@H]2O[C@H](CO)[C@@H](O[C@H]3O[C@H](CO)[C@@H](O)[C@H](O)[C@H]3O)[C@H](O)[C@H]2O)CO[C@@H]2O[C@H](CO)[C@@H](O[C@H]3O[C@H](CO)[C@@H](O)[C@H](O)[C@H]3O)[C@H](O)[C@H]2O)nc(SCCCCCCCC)n1 [TSM-T8] | better in maintaining the ligand binding ability of the receptor than DDM | 4.2 ± 0.0 | ~10 | ~0.006 |  | 
5 | CCCCCCCCCSc1nc(NC(CO[C@@H]2O[C@H](CO)[C@@H](O[C@H]3O[C@H](CO)[C@@H](O)[C@H](O)[C@H]3O)[C@H](O)[C@H]2O)CO[C@@H]2O[C@H](CO)[C@@H](O[C@H]3O[C@H](CO)[C@@H](O)[C@H](O)[C@H]3O)[C@H](O)[C@H]2O)nc(SCCCCCCCCC)n1 [TSM-T9] | better in maintaining the ligand binding ability of the receptor than DDM | 5.1 ± 0.1 | ~10 | ~0.004 |  | best substrate binding activity
6 | CCCCCCCCCSc1nc(NC(CO[C@@H]2O[C@H](CO)[C@@H](O)[C@H](O)[C@H]2O)(CO[C@@H]2O[C@H](CO)[C@@H](O)[C@H](O)[C@H]2O)CO[C@@H]2O[C@H](CO)[C@@H](O)[C@H](O)[C@H]2O)nc(SCCCCCCCCC)n1 [TTG-T9] | better in maintaining the ligand binding ability of the receptor than DDM | 3.3 ± 0.11 | ~10 | ~0.010 |  | 
7 | CCCCCCCCCCSc1nc(NC(CO[C@@H]2O[C@H](CO)[C@@H](O)[C@H](O)[C@H]2O)(CO[C@@H]2O[C@H](CO)[C@@H](O)[C@H](O)[C@H]2O)CO[C@@H]2O[C@H](CO)[C@@H](O)[C@H](O)[C@H]2O)nc(SCCCCCCCCCC)n1 [TTG-T10] | better in maintaining the ligand binding ability of the receptor than DDM | 3.6 ± 0.10 | ~10 | ~0.006 |  | best substrate binding activity
8 | CCCCCCCCCCCSc1nc(NC(CO[C@@H]2O[C@H](CO)[C@@H](O)[C@H](O)[C@H]2O)(CO[C@@H]2O[C@H](CO)[C@@H](O)[C@H](O)[C@H]2O)CO[C@@H]2O[C@H](CO)[C@@H](O)[C@H](O)[C@H]2O)nc(SCCCCCCCCCCC)n1 [TTG-T11] | better in maintaining the ligand binding ability of the receptor than DDM | 3.7 ± 0.09 | ~10 | ~0.004 |  | best substrate binding activity
9 | CCCCCCCCCCCCSc1nc(NC(CO[C@@H]2O[C@H](CO)[C@@H](O)[C@H](O)[C@H]2O)(CO[C@@H]2O[C@H](CO)[C@@H](O)[C@H](O)[C@H]2O)CO[C@@H]2O[C@H](CO)[C@@H](O)[C@H](O)[C@H]2O)nc(SCCCCCCCCCCCC)n1 [TTG-T12] | better in maintaining the ligand binding ability of the receptor than DDM | 5.5 ± 0.20 | ~5 | ~0.0035 |  | best substrate binding activity

— patent US12473324B2, “Triazine-based amphiphilic compound and use thereof” (INDUSTRY-UNIVERSITY COOPERATION FOUNDATION HANYANG …, priority 2019, dated 2025)
